Biological target: TrkA (Homo sapiens (Human), UniProt P04629)
Assay: TrkA kinase HTRF enzyme inhibition assay
Assay type: biochemical
Conditions: TrkA pre-incubated with 200 μM ATP
Protocol: TrkA enzyme was obtained from Invitrogen (as catalog numbers PV3144, PV3616, and PV3617, respectively). Enzyme activity was measured in an HTRF® (homogeneous time resolved fluorescence) assay, which detects enzymatic phosphorylation of a biotinylated synthetic peptide substrate (an LCK peptide analog, biotin-ahx-[…], from Genemed Synthesis). Phosphorylation is assessed by HTRF® in the presence of an anti-phosphotyrosine antibody conjugated to Eu^3+ cryptate (Cisbio) as donor fluorophore, and streptavidin conjugated to allophycocyanin (ProZyme) as acceptor fluorophore. The HTRF® signal was detected at two different wavelengths (620 nm and 665 nm) which were used to calculate the fluorescence ratio.
TrkA enzyme was titrated to a concentration optimized to ensure accurate measurement of the initial reaction rate. To allow the TrkA enzyme to undergo activation and auto-phosphorylation, a 20 minute pre-incubation with ATP was carried out (at twice the final targeted enzyme and ATP concentration) prior to addition of test compound and the peptide substrate.
TrkA in vitro assays were performed by pre-incubating TrkA (2-10 nM) with ATP (200 μM) for 20 minutes at ambient temperature in 50 mM HEPES pH 7.4, 10 mM MgCl2, 2 mM MnCl2, 100 μM Na3VO4, 1 mM dithiothreitol, 0.01% BSA (bovine serum albumin). Then, to the activated Trk enzyme mixture was added the test compound in 2% dimethyl sulfoxide. After 10 minutes, the peptide substrate (125 nM) was added. After 1 hour, enzyme reactions were terminated by addition of equal reaction volumes of detection/stop reagent (containing 0.2 μg/mL anti-phosphotyrosine monoclonal antibody labeled with europium from Cisbio (catalog#PT66-K), and 4 μg/mL PhycoLink® Streptavidin-Allophycocyanin conjugate from ProZyme (catalog#PJ25S) in 60 mM EDTA in 40 mM HEPES pH 7.4, 480 mM KF, 0.01% Tween® 20 and 0.1% BSA bovine serum albumin) Reaction plates were stored at 4° C. overnight before reading the fluorescence ratio signal on a PerkinElmer EnVision™ fluorescence detector. Individual reaction wells were stopped at time points to obtain reaction rates. The test inhibitor compounds were assayed in duplicate, at half-log serial dilutions over a range of concentrations (e.g. starting at 50 μM or 5 μM as the high compound concentration). The percent Trk enzyme inhibition was calculated from the initial rates of the inhibited reactions relative to the uninhibited control. IC50 values were calculated by fitting the inhibition percent to the concentration of inhibitor [I] in the assay in equation 1 below, to solve for the IC50. Inhibition %=100[I]/([I]+[IC50]) equation 1

TrkA, sequence (P04629 33-796): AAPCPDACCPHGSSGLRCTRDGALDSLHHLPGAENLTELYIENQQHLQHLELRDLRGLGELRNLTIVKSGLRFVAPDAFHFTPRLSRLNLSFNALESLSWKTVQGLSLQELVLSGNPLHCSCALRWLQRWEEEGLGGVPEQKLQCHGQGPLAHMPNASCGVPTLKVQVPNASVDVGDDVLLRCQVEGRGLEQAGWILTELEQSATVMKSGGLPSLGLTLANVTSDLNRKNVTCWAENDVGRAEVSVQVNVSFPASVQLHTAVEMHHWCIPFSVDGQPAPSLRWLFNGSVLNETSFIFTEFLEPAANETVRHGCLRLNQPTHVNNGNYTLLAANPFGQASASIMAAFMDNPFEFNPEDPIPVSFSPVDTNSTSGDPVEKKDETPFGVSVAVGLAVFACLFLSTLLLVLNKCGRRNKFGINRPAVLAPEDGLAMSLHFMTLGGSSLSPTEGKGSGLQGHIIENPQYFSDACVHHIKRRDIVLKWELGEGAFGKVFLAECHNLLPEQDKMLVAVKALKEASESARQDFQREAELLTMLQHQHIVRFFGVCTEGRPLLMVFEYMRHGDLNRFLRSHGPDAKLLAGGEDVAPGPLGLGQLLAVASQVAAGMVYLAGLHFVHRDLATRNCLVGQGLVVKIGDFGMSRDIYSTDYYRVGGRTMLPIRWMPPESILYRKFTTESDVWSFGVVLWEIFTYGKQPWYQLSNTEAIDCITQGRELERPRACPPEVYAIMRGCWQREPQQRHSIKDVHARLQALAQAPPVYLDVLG

Row | SMILES | IC50 [nM]
1 | Cc1ccc(NC(=O)c2coc3c2C(=O)N(C)CC3)cc1 [Example 4, 5-methyl-N-(4-methylphenyl)-4-oxo-4,5,6,7-tetrahydrofuro[3,2-c]pyridine-3-carboxamide] | 375
2 | COc1cc(N2CCN(C(=O)OC(C)(C)C)CC2)ccc1NC(=O)c1coc2c1C(=O)NCC2 [Example 5, tert-butyl 4-(3-methoxy-4-{[(4-oxo-4,5,6,7-tetrahydrofuro[3,2-c]pyridin-3-yl)carbonyl]amino}phenyl)piperazine-1-carboxylate] | 54.4
3 | COc1nc(N2CCN(C)CC2)ccc1NC(=O)c1coc2c1C(=O)NCCC2 [Example 7, N-[2-methoxy-6-(4-methylpiperazin-1-yl)pyridin-3-yl]-4-oxo-5,6,7,8-tetrahydro-4H-furo[3,2-c]azepine-3-carboxamide] | 212
4 | CCOc1nc(N2CCN(C(C)=O)CC2)ccc1NC(=O)c1coc2c1C(=O)N(CCOCc1ccccc1)CC2 [Example 8, N-[6-(4-acetylpiperazin-1-yl)-2-ethoxypyridin-3-yl]-5-[2-(benzyloxy)ethyl]-4-oxo-4,5,6,7-tetrahydrofuro[3,2-c]pyridine-3-carboxamide] | 69.5
5 | O=C(Nc1ccc2[nH]cnc2c1)c1coc2c1C(=O)NCC2 [Example 12, N-(1H-benzimidazol-5-yl)-4-oxo-4,5,6,7-tetrahydrofuro[3,2-c]pyridine-3-carboxamide] | 99.6
6 | NC(=O)c1ccc(NC(=O)c2coc3c2C(=O)NCC3)cc1 [Example 13, N-(4-carbamoylphenyl)-4-oxo-4,5,6,7-tetrahydrofuro[3,2-c]pyridine-3-carboxamide] | 166
7 | O=C(Nc1ccc2[nH]ncc2c1)c1coc2c1C(=O)NCC2 [Example 14, N-(1H-indazol-5-yl)-4-oxo-4,5,6,7-tetrahydrofuro[3,2-c]pyridine-3-carboxamide] | 111
8 | CN1CCN(c2ccc(NC(=O)c3coc4c3C(=O)NCC4)nc2)CC1 [Example 16, N-[5-(4-methylpiperazin-1-yl)pyridin-2-yl]-4-oxo-4,5,6,7-tetrahydrofuro[3,2-c]pyridine-3-carboxamide] | 279
9 | COCCOc1nc(N2CCN(C(C)=O)CC2)ccc1NC(=O)c1coc2c1C(=O)NCC2 [Example 20, N-[6-(4-acetylpiperazin-1-yl)-2-(2-methoxyethoxyl)pyridin-3-yl]-4-oxo-4,5,6,7-tetrahydrofuro[3,2-c]pyridine-3-carboxamide] | 25.9
10 | CN1CCc2occ(C(=O)Nc3ccc4[nH]ncc4c3)c2C1=O [Example 23, N-(1H-indazol-5-yl)-5-methyl-4-oxo-4,5,6,7-tetrahydrofuro[3,2-c]pyridine-3-carboxamide] | 257
11 | CN1CCc2occ(C(=O)Nc3ccc(N4CCOCC4)cc3)c2C1=O [Example 25, 5-methyl-N-[4-(morpholin-4-yl)phenyl]-4-oxo-4,5,6,7-tetrahydrofuro[3,2-c]pyridine-3-carboxamide] | 112
12 | CN1CCc2occ(C(=O)Nc3ccc(C(N)=O)cc3)c2C1=O [Example 26, N-(4-carbamoylphenyl)-5-methyl-4-oxo-4,5,6,7-tetrahydrofuro[3,2-c]pyridine-3-carboxamide] | 202
13 | Cc1nc2ccc(NC(=O)c3coc4c3C(=O)N(C)CC4)cc2s1 [Example 29, 5-methyl-N-(2-methyl-1,3-benzothiazol-6-yl)-4-oxo-4,5,6,7-tetrahydrofuro[3,2-c]pyridine-3-carboxamide] | 169
14 | COc1ccc(NC(=O)c2coc3c2C(=O)NCC3)c(OC)n1 [Example 35, N-(2,6-dimethoxypyridin-3-yl)-4-oxo-4,5,6,7-tetrahydrofuro[3,2-c]pyridine-3-carboxamide] | 117
15 | O=C(Nc1ccon1)c1coc2c1C(=O)NCC2 [Example 36, N-(1,2-oxazol-3-yl)-4-oxo-4,5,6,7-tetrahydrofuro[3,2-c]pyridine-3-carboxamide] | 8010

More lines, in order of falling IC50, values ahead:

Row | IC50 [nM] | SMILES
16 | 3210 | O=C(Nc1cnccn1)c1coc2c1C(=O)NCC2 [Example 37, 4-oxo-N-(pyrazin-2-yl)-4,5,6,7-tetrahydrofuro[3,2-c]pyridine-3-carboxamide]
17 | 1720 | Cc1cc(NC(=O)c2coc3c2C(=O)NCC3)no1 [Example 38, N-(5-methyl-1,2-oxazol-3-yl)-4-oxo-4,5,6,7-tetrahydrofuro[3,2-c]pyridine-3-carboxamide]
18 | 910 | O=C(Nc1ccc2cn[nH]c2c1)c1coc2c1C(=O)NCC2 [Example 34, N-(1H-indazol-6-yl)-4-oxo-4,5,6,7-tetrahydrofuro[3,2-c]pyridine-3-carboxamide]
19 | 554 | CC(=O)Nc1ccc(NC(=O)c2coc3c2C(=O)NCC3)cc1 [Example 32, N-(4-acetamidophenyl)-4-oxo-4,5,6,7-tetrahydrofuro[3,2-c]pyridine-3-carboxamide]
20 | 521 | Cc1ccc(NC(=O)c2coc3c2C(=O)NCC3)cc1 [Example 30, N-(4-methylphenyl)-4-oxo-4,5,6,7-tetrahydrofuro[3,2-c]pyridine-3-carboxamide]
21 | 428 | CN1CCc2occ(C(=O)Nc3ccc4[nH]cnc4c3)c2C1=O [Example 27, N-(1H-benzimidazol-5-yl)-5-methyl-4-oxo-4,5,6,7-tetrahydrofuro[3,2-c]pyridine-3-carboxamide]
22 | 390 | O=C(Nc1ccc(O)cc1)c1coc2c1C(=O)NCC2 [Example 31, N-(4-hydroxyphenyl)-4-oxo-4,5,6,7-tetrahydrofuro[3,2-c]pyridine-3-carboxamide]
23 | 200 | CN1CCN(c2ccc(NC(=O)c3coc4c3C(=O)N(C)CC4)cc2)CC1 [Example 22, 5-methyl-N-[4-(4-methylpiperazin-1-yl)phenyl]-4-oxo-4,5,6,7-tetrahydrofuro[3,2-c]pyridine-3-carboxamide]
24 | 189 | CN1CCc2occ(C(=O)Nc3ccc4c(cnn4C)c3)c2C1=O [Example 24, 5-methyl-N-(1-methyl-1H-indazol-5-yl)-4-oxo-4,5,6,7-tetrahydrofuro[3,2-c]pyridine-3-carboxamide]
25 | 173 | O=C(Nc1ccc(N2CCOCC2)cc1)c1coc2c1C(=O)NCC2 [Example 3, N-[4-(morpholin-4-yl)phenyl]-4-oxo-4,5,6,7-tetrahydrofuro[3,2-c]pyridine-3-carboxamide]
26 | 111 | O=C(Nc1ccc2ncccc2c1)c1coc2c1C(=O)NCC2 [Example 33, 4-oxo-N-(quinolin-6-yl)-4,5,6,7-tetrahydrofuro[3,2-c]pyridine-3-carboxamide]
27 | 110 | CC(=O)N1CCN(c2ccc(NC(=O)c3coc4c3C(=O)N(C)CC4)cc2)CC1 [Example 28, N-[4-(4-acetylpiperazin-1-yl)phenyl]-5-methyl-4-oxo-4,5,6,7-tetrahydrofuro[3,2-c]pyridine-3-carboxamide]
28 | 81.4 | CN1CCN(c2ccc(NC(=O)c3coc4c3C(=O)NCC4)cc2)CC1 [Example 17, N-[4-(4-methylpiperazin-1-yl)phenyl]-4-oxo-4,5,6,7-tetrahydrofuro[3,2-c]pyridine-3-carboxamide]
29 | 64 | Cn1ncc2cc(NC(=O)c3coc4c3C(=O)NCC4)ccc21 [Example 11, N-(1-methyl-1H-indazol-5-yl)-4-oxo-4,5,6,7-tetrahydrofuro[3,2-c]pyridine-3-carboxamide]
30 | 59.8 | COc1cc(N2CCN(C(C)=O)CC2)ccc1NC(=O)c1coc2c1C(=O)NCC2 [Example 18, N-[4-(4-acetylpiperazin-1-yl)-2-methoxyphenyl]-4-oxo-4,5,6,7-tetrahydrofuro[3,2-c]pyridine-3-carboxamide]
31 | 55.9 | CC(=O)N1CCN(c2ccc(NC(=O)c3coc4c3C(=O)NCC4)cc2)CC1 [Example 10, N-[4-(4-acetylpiperazin-1-yl)phenyl]-4-oxo-4,5,6,7-tetrahydrofuro[3,2-c]pyridine-3-carboxamide]
32 | 44.2 | Cn1cc2cc(NC(=O)c3coc4c3C(=O)NCC4)ccc2n1 [Example 1, N-(2-methyl-2H-indazol-5-yl)-4-oxo-4,5,6,7-tetrahydrofuro[3,2-c]pyridine-3-carboxamide]
33 | 21.6 | CC(=O)N1CCN(c2ccc(NC(=O)c3coc4c3C(=O)NCC4)c(OC3COC3)n2)CC1 [Example 21, N-[6-(4-acetylpiperazin-1-yl)-2-(oxetan-3-yloxy)pyridin-3-yl]-4-oxo-4,5,6,7-tetrahydrofuro[3,2-c]pyridine-3-carboxamide]
34 | 16.3 | CCOc1nc(N2CCN(C(C)=O)CC2)ccc1NC(=O)c1coc2c1C(=O)NCC2 [Example 19, N-[6-(4-acetylpiperazin-1-yl)-2-ethoxypyridin-3-yl]-4-oxo-4,5,6,7-tetrahydrofuro[3,2-c]pyridine-3-carboxamide]
